Earlier results on 1 compound are cited in patent publication US20240115492A1, “AN ORODISPERSIBLE PHARMACEUTICAL SOLID DOSAGE FORM OF RASAGILINE” (INTAS PHARMACEUTICALS LTD., priority 2021, published 2024).

Turning to `C#CCN(C)[C@H](C)Cc1ccccc1` [selegiline], where the note is “10 mg orally disintegrated tablets vs conventional 10 mg tablets”, the “Selegiline plasma exposure, ODT versus conventional tablets” value was “twelve-time higher”. For the same compound, the “selegiline absorbed through the mucous membrane of the mouth” value (ODT form (10 mg), within 1 minute) is “about 30%”.
